Assays:
[1] = tested on: Tyrosine-protein kinase ABL1 (Homo sapiens), P00519 [F317I]; conditions: Compound concentration 1000.0 nM
[2] = tested on: Tyrosine-protein kinase ABL1 (Homo sapiens), P00519 [Q252H]; conditions: Compound concentration 1000.0 nM
[3] = biological target: Activin receptor type-1B (Homo sapiens) (UniProt P36896); conditions: Compound concentration 1000.0 nM
[4] = biological target: Activin receptor type-2B (Homo sapiens) (UniProt Q13705); conditions: Compound concentration 1000.0 nM
[5] = biological target: Serine/threonine-protein kinase B-raf (Homo sapiens) (UniProt P15056); conditions: Compound concentration 1000.0 nM
[6] = tested on: Serine/threonine-protein kinase B-raf (Homo sapiens), P15056 [V600E]; conditions: Compound concentration 1000.0 nM
[7] = biological target: Cyclin-dependent kinase 2 (Homo sapiens) (UniProt P24941); conditions: Compound concentration 1000.0 nM
[8] = biological target: Casein kinase I isoform delta (Homo sapiens) (UniProt P48730); conditions: Compound concentration 1000.0 nM
[9] = biological target: Serine/threonine-protein kinase DCLK2 (Homo sapiens) (UniProt Q8N568); conditions: Compound concentration 1000.0 nM
[10] = biological target: Myotonin-protein kinase (Homo sapiens) (UniProt Q09013); conditions: Compound concentration 1000.0 nM
[11] = biological target: Ephrin type-A receptor 2 (Homo sapiens) (UniProt P29317); conditions: Compound concentration 1000.0 nM
[12] = biological target: Ephrin type-B receptor 1 (Homo sapiens) (UniProt P54762); conditions: Compound concentration 1000.0 nM
[13] = biological target: Tyrosine-protein kinase Fgr (Homo sapiens) (UniProt P09769); conditions: Compound concentration 1000.0 nM
[14] = tested on: Receptor-type tyrosine-protein kinase FLT3 (Homo sapiens), P36888 [D835Y]; conditions: Compound concentration 1000.0 nM
[15] = tested on: Receptor-type tyrosine-protein kinase FLT3 (Homo sapiens), P36888 [K663Q]; conditions: Compound concentration 1000.0 nM
[16] = biological target: Rhodopsin kinase GRK1 (Homo sapiens) (UniProt Q15835); conditions: Compound concentration 1000.0 nM
[17] = biological target: Beta-adrenergic receptor kinase 1 (Homo sapiens) (UniProt P25098); conditions: Compound concentration 1000.0 nM
[18] = biological target: Mast/stem cell growth factor receptor Kit (Homo sapiens) (UniProt P10721); conditions: Compound concentration 1000.0 nM
[19] = tested on: Mast/stem cell growth factor receptor Kit (Homo sapiens), P10721 [V559D,V654A]; conditions: Compound concentration 1000.0 nM
[20] = biological target: Serine/threonine-protein kinase LATS1 (Homo sapiens) (UniProt O95835); conditions: Compound concentration 1000.0 nM
[21] = biological target: LIM domain kinase 1 (Homo sapiens) (UniProt P53667); conditions: Compound concentration 1000.0 nM
[22] = biological target: Tyrosine-protein kinase Lyn (Homo sapiens) (UniProt P07948); conditions: Compound concentration 1000.0 nM
[23] = biological target: Mitogen-activated protein kinase kinase kinase 15 (Homo sapiens) (UniProt Q6ZN16); conditions: Compound concentration 1000.0 nM
[24] = biological target: MAP kinase-activated protein kinase 5 (Homo sapiens) (UniProt Q8IW41); conditions: Compound concentration 1000.0 nM
[25] = biological target: Tyrosine-protein kinase Mer (Homo sapiens) (UniProt Q12866); conditions: Compound concentration 1000.0 nM
[26] = biological target: Serine/threonine-protein kinase Nek4 (Homo sapiens) (UniProt P51957); conditions: Compound concentration 1000.0 nM
[27] = biological target: Mitogen-activated protein kinase 13 (Homo sapiens) (UniProt O15264); conditions: Compound concentration 1000.0 nM
[28] = biological target: Platelet-derived growth factor receptor alpha (Homo sapiens) (UniProt P16234); conditions: Compound concentration 1000.0 nM
[29] = biological target: Cyclin-dependent kinase 2 homolog (Plasmodium falciparum (isolate 3D7)) (UniProt P61075); conditions: Compound concentration 1000.0 nM
[30] = biological target: Serine/threonine-protein kinase pim-3 (Homo sapiens) (UniProt Q86V86); conditions: Compound concentration 1000.0 nM
[31] = biological target: Membrane-associated tyrosine- and threonine-specific cdc2-inhibitory kinase (Homo sapiens) (UniProt Q99640); conditions: Compound concentration 1000.0 nM
[32] = biological target: Serine/threonine-protein kinase D3 (Homo sapiens) (UniProt O94806); conditions: Compound concentration 1000.0 nM
[33] = biological target: Serine/threonine-protein kinase PRP4 homolog (Homo sapiens) (UniProt Q13523); conditions: Compound concentration 1000.0 nM
[34] = biological target: Rho-associated protein kinase 1 (Homo sapiens) (UniProt Q13464); conditions: Compound concentration 1000.0 nM
[35] = biological target: Ribosomal protein S6 kinase alpha-1 (Homo sapiens) (UniProt Q15418); conditions: Compound concentration 1000.0 nM
[36] = biological target: Serine/threonine-protein kinase SBK1 (Homo sapiens) (UniProt Q52WX2); conditions: Compound concentration 1000.0 nM
[37] = biological target: Uncharacterized serine/threonine-protein kinase SBK3 (Homo sapiens) (UniProt P0C264); conditions: Compound concentration 1000.0 nM
[38] = biological target: NUAK family SNF1-like kinase 2 (Homo sapiens) (UniProt Q9H093); conditions: Compound concentration 1000.0 nM
[39] = biological target: Serine/threonine-protein kinase 36 (Homo sapiens) (UniProt Q9NRP7); conditions: Compound concentration 1000.0 nM
[40] = biological target: Tyrosine-protein kinase Tec (Homo sapiens) (UniProt P42680); conditions: Compound concentration 1000.0 nM
[41] = biological target: BDNF/NT-3 growth factors receptor (Homo sapiens) (UniProt Q16620); conditions: Compound concentration 1000.0 nM
[42] = biological target: Dual specificity protein kinase TTK (Homo sapiens) (UniProt P33981); conditions: Compound concentration 1000.0 nM
[43] = biological target: Serine/threonine-protein kinase 25 (Homo sapiens) (UniProt O00506); conditions: Compound concentration 1000.0 nM
[44] = biological target: Tyrosine-protein kinase ZAP-70 (Homo sapiens) (UniProt P43403); conditions: Compound concentration 1000.0 nM
Rattus norvegicus = organism: Rattus norvegicus; conditions: Compound concentration 10.0 uM

Chain of BDNF/NT-3 growth factors receptor (Homo sapiens) (Q16620 32-822 limits assumed): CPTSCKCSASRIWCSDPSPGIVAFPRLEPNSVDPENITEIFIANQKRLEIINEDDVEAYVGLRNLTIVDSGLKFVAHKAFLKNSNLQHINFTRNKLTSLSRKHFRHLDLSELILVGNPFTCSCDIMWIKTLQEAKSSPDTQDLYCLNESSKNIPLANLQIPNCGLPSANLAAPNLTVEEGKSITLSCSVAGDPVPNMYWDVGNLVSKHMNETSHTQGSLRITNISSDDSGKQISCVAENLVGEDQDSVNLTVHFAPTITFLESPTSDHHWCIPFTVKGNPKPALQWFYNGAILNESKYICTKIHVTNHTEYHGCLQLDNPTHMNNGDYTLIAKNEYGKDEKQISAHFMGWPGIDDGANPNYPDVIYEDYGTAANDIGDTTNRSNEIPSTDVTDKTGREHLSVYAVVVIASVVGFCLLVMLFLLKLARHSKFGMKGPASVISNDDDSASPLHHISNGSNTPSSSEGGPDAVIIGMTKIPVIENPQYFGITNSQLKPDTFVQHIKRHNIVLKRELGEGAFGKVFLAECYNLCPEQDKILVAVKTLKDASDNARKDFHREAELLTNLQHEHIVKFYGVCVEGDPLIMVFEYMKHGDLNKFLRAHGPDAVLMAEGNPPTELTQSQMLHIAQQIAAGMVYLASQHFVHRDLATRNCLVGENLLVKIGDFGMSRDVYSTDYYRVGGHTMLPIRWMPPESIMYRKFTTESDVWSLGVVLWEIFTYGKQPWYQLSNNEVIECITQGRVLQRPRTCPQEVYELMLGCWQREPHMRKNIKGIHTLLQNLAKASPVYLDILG
Chain of Ribosomal protein S6 kinase alpha-1 (Homo sapiens) (Q15418 whole entry): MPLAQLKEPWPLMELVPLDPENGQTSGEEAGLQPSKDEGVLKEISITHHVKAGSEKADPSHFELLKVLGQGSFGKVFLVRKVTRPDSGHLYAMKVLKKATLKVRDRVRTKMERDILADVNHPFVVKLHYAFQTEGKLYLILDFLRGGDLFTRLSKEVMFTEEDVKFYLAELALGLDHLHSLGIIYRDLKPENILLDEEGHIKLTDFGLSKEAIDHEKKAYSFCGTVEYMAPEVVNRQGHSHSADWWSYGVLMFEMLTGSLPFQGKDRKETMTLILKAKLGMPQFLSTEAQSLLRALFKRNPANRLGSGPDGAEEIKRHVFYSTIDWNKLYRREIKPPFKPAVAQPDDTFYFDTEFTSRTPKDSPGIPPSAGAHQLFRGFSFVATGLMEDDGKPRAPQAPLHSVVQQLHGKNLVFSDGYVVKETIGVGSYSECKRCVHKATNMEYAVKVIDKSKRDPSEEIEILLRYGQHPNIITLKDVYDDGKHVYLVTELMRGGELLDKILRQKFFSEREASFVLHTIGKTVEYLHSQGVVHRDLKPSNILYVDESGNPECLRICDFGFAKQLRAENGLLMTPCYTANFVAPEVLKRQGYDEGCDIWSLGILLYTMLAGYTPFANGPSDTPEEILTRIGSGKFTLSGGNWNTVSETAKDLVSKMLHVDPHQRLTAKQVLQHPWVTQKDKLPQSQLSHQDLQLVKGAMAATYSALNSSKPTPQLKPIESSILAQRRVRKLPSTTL
Chain of Serine/threonine-protein kinase LATS1 (Homo sapiens) (O95835 whole entry, the tested form may be a part): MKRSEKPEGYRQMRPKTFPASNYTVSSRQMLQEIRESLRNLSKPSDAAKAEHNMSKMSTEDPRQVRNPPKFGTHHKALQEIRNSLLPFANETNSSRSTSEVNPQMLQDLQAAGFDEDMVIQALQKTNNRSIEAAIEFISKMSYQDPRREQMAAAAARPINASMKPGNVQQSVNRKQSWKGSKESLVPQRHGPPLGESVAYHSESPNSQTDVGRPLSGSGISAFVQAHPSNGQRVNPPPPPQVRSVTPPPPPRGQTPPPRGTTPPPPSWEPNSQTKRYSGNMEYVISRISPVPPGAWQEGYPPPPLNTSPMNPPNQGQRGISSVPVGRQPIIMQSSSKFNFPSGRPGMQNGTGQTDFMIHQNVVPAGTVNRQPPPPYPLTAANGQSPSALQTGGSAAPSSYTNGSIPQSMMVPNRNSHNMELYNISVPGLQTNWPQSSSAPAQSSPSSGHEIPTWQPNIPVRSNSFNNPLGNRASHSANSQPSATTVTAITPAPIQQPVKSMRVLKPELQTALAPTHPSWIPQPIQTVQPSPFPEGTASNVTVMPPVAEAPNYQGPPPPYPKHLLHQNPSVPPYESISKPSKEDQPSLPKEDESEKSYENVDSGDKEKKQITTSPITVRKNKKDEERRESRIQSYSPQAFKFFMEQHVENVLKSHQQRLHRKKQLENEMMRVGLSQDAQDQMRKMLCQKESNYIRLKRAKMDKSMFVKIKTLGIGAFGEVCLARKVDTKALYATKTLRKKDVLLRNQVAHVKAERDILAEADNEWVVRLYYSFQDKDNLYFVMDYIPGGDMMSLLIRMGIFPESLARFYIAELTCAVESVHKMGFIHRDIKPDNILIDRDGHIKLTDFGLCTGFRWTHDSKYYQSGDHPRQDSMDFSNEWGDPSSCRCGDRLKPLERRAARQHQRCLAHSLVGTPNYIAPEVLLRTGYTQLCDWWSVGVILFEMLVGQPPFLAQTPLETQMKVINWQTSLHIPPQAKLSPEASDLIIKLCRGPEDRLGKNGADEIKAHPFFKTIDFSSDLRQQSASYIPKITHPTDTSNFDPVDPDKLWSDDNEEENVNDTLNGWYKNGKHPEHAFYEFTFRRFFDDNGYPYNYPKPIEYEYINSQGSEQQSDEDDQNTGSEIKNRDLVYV
Chain of Serine/threonine-protein kinase B-raf (Homo sapiens), P15056 [V600E] (P15056 whole entry V600E): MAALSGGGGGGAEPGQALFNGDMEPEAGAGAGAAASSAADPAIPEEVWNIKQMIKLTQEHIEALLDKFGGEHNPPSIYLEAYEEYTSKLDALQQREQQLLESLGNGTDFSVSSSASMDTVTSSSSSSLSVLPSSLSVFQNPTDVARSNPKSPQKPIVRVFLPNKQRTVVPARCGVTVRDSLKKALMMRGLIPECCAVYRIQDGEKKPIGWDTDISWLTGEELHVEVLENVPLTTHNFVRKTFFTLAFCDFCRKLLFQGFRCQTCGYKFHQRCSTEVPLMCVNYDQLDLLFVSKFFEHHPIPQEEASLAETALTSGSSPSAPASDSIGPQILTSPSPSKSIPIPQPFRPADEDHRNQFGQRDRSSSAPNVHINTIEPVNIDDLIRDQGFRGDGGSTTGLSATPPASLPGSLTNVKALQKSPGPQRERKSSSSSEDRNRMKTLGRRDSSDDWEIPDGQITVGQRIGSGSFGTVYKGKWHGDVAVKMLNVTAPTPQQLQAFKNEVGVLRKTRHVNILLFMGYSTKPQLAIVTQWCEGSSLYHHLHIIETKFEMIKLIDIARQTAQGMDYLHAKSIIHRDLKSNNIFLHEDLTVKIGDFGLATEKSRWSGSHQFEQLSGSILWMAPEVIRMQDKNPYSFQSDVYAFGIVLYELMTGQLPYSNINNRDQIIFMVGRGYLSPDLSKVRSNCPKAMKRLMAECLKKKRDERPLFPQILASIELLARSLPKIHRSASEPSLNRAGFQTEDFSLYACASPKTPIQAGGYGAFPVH
Chain of Membrane-associated tyrosine- and threonine-specific cdc2-inhibitory kinase (Homo sapiens) (Q99640 whole entry): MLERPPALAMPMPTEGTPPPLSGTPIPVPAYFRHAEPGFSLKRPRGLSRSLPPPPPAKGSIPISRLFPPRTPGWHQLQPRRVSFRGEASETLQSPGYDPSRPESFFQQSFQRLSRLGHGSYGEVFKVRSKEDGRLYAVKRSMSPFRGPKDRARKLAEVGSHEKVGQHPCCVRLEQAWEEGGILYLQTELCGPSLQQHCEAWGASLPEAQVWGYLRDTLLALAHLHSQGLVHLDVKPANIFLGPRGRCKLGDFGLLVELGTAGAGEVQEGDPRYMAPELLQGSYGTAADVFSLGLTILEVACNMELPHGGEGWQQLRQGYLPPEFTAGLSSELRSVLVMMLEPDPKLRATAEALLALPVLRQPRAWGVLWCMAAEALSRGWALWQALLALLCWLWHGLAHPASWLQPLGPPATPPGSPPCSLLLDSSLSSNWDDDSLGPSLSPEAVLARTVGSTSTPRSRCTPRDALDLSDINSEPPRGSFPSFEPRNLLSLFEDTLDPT
Chain of Tyrosine-protein kinase Fgr (Homo sapiens) (P09769 2-529 limits assumed): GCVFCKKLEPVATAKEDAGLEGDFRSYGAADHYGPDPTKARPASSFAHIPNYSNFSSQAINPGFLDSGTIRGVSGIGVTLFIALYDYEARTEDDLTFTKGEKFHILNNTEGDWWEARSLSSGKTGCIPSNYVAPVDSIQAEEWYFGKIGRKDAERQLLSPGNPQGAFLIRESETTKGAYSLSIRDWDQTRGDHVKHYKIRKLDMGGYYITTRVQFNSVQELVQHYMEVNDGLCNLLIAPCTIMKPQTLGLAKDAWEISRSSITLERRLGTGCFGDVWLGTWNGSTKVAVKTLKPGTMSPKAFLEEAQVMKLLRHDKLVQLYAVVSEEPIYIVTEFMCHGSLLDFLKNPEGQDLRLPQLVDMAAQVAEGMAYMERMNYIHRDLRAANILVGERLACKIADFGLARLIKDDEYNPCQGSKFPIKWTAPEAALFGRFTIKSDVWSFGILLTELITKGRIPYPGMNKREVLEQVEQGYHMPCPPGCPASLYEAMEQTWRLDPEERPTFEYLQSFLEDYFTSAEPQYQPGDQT
Chain of Serine/threonine-protein kinase B-raf (Homo sapiens) (P15056 whole entry): as the sequence (P15056 whole entry V600E) above, with E600V counted along it

O=c1nc(-c2ccccn2)sc2ccccc12 [BTZO-1]
inactive: residual activity [1] 100% | residual activity [2] 82% | residual activity [3] 100% | residual activity [4] 100% | residual activity [5] 100% | residual activity [6] 100% | residual activity [7] 96% | residual activity [8] 81% | residual activity [9] 97% | residual activity [10] 100% | residual activity [11] 100% | residual activity [12] 88% | residual activity [13] 100% | residual activity [14] 100% | residual activity [15] 100% | residual activity [16] 76% | residual activity [17] 65% | residual activity [18] 79% | residual activity [19] 100% | residual activity [20] 95% | residual activity [21] 84% | residual activity [22] 100% | residual activity [23] 100% | residual activity [24] 92% | residual activity [25] 82% | residual activity [26] 91% | residual activity [27] 99% | residual activity [28] 89% | residual activity [29] 100% | residual activity [30] 100% | residual activity [31] 100% | residual activity [32] 81% | residual activity [33] 71% | residual activity [34] 100% | residual activity [35] 100% | residual activity [36] 100% | residual activity [37] 100% | residual activity [38] 100% | residual activity [39] 82% | residual activity [40] 82% | residual activity [41] 96% | residual activity [42] 100% | residual activity [43] 100% | residual activity [44] 100% | inhibition (Rattus norvegicus) 9.91%

O=C1NC(c2ccccn2)Sc2ccccc21 (stereo not given) [BTZO-4]
inactive: residual activity [1] 90% | residual activity [2] 73% | residual activity [3] 99% | residual activity [4] 100% | residual activity [5] 90% | residual activity [6] 94% | residual activity [7] 81% | residual activity [8] 74% | residual activity [9] 92% | residual activity [10] 100% | residual activity [11] 100% | residual activity [12] 90% | residual activity [13] 100% | residual activity [14] 86% | residual activity [15] 82% | residual activity [16] 81% | residual activity [17] 58% | residual activity [18] 89% | residual activity [19] 87% | residual activity [20] 98% | residual activity [21] 78% | residual activity [22] 80% | residual activity [23] 85% | residual activity [24] 73% | residual activity [25] 75% | residual activity [26] 58% | residual activity [27] 100% | residual activity [28] 76% | residual activity [29] 100% | residual activity [30] 100% | residual activity [31] 100% | residual activity [32] 100% | residual activity [33] 78% | residual activity [34] 82% | residual activity [35] 100% | residual activity [36] 100% | residual activity [37] 86% | residual activity [38] 100% | residual activity [39] 79% | residual activity [40] 75% | residual activity [41] 87% | residual activity [42] 91% | residual activity [43] 78% | residual activity [44] 90% | inhibition (Rattus norvegicus) 22.6%
